From PMC12423301, “Astrocytic monoamine oxidase B (MAOB)–gamma-aminobutyric acid (GABA) axis as a molecular brake on repair following spinal cord injury” (Signal Transduction and Targeted Therapy, 2025)
“And” between values parts separate entries of the source, which are not always exact repeats. Identical values can stand only once. Like-named read-outs stand apart in the source and are kept apart here.

Columns and labels:
[1] = GLP toxicity tests in rats
[2] = Preclinical pharmacokinetics in monkeys; type: in vivo, Cynomolgus monkey; conditions: for AUC(0-t) / Vd/F / Tmax / AUC(0-inf) / CL/F / half-life: cynomolgus monkey, in vivo
Protocol: In a pharmacokinetic study, plasma PK parameters were measured after a single oral administration of […]
dose group and at 4 to 6 hours after administration in the 30 mg/kg dose group. In the elimination phase, the […]
Systemic exposure (AUClast) to the test substance was 30587 and 80770 ng*hr/mL, respectively. […]

[3] = human
Protocol: Protocol No. NB_KDS_ADP1_21 Confidential
Therapeutics in Adult Healthy Volunteers), with considering the safety factor and the result of the rat that […]
from the NOAEL calculated in the 4-week repeated toxicity test for rats and cynomolgus monkeys, the maximum recommended starting dose (MRSD) was calculated. As a result of converting 0.484 mg/kg, a value obtained by dividing this by the safety factor of 10, into a dose for a healthy adult weighing 60 kg, the MRSD was calculated to be 29.04 mg, and the initial administration dose was set to 30 mg. As a result of a single oral dose toxicity test in rats, 700 mg/kg was reported as a maximum tolerated dose (MTD), and it was calculated as 6774.2 mg/60kg when converted to a human equivalent dose (HED). Therefore, the set maximum dose is expected to be suitable in terms of safety.
Species NOAEL HED factor (Safety factor factor (Safety factor 1/30) […]
5.2.2. Duration of Dosing and Timepoints of Blood samplings/Urine collections
6 hours. In addition, considering that the Tmax of selegiline (ZELAPAR®) and safinamide (XADAGO®), which are similar drugs, are 0.75 hours and 1.83 to 2.83 hours, respectively, pharmacokinetic blood samplings before the estimated Tmax (about 2 hours) were included at 3 or more time points, and the pharmacokinetic blood […]

[4] = cynomolgus monkey, in vivo, po
rat SCI model [5] = experiment: Ki67 promoter dual-virus labeling of proliferating cells; type: in vivo, Sprague-Dawley (SD) rats; conditions: SCI + KDS 2w, PI 10w
rat SCI model [6] = experiment: BBB locomotor test in rat SCI model; type: in vivo, Sprague-Dawley (SD) rats; conditions: for average BBB score: at PI 10w
Protocol: For the establishment of the mouse and rat SCI models, we followed methods consistent with those of previous studies.[65]–[67] In mice, a laminectomy was performed at thoracic level 10 (T10), and self-closing forceps (11485-11, Fine Science Tools; 0.10 × 0.06 mm tip, 11 cm) were applied to the exposed spinal cord for 3 s to induce injury. In rats, a laminectomy was performed at thoracic level 9 (T9), followed by the application of the same self-closing forceps (11485-11, Fine Science Tools) for 10 s. Each “Sham” group or “SCI” group indicates animals operated by only laminectomy or SCI, respectively.
(S)-2-(((4’-Trifluoromethylbiphenyl-4-yl)methyl)amino)propanamide methane-sulfonate (KDS2010) was dissolved in distilled water. For SD rats, KDS2010 was administered via the drinking water ad libitum. […] To evaluate dose-dependent effects, additional groups received 20 mg/kg/day or 30 mg/kg/day starting at PI 2 weeks. To achieve consistent exposure across animals, we meticulously monitored the daily water intake and body weight of each rat throughout the study. As shown in the Extended Data (Supplementary Table 1), water consumption was calculated weekly via a formula based on body weight (e.g., d.w = weight × 0.09 at week 0; gradually tapering to weight × 0.075 by weeks 8–9). Importantly, all animals were confirmed to have consumed the entirety of the provided medicated water each day, ensuring full ingestion of the intended dose (10 mg/kg/day for the majority of groups, and 20/30 mg/kg/day for the dose-dependent experiments).
Behavioral test was performed every week for a total of 11 weeks (1 week before and 10 weeks after the surgical operation) to assess locomotor recovery. The BBB motor score[22] or BMS score[17] was used to evaluate the quality of hindlimb movement during open field locomotion in rats or mice, respectively. In the first recovery phase, the range of joint movement and the presence of the foot closure on the floor were checked. In the second phase, the recovery of weighted stepping was checked. In the third phase, gait coordination and tail movement were assessed. These scores are “ordinal and the magnitude of behavioral change between ranks may not be consistent,” as originally described.[17] To perform the group allocation in a blinded manner during data collection, animal preparation and behavior tests were performed by at least two different investigators.
In the BBB locomotor test with drug administration beginning at PI 2w, the animals were initially subjected to injury, and then divided into two groups at PI 2w based on the basis of similar averaged BBB scores. Subsequently, these groups were treated with either the vehicle (SCI + V) or the drug (SCI+drug) from PI 2w. To exclude incompletely generated severe rat SCI animals, we established the following criteria: a score difference of more than 4 between PI 1w and 2w, and a score exceeding 8 at PI 2w.

Structure (SMILES): CS(=O)(=O)O.C[C@H](NCc1ccc(-c2ccc(C(F)(F)F)cc2)cc1)C(N)=O [KDS2010, (S)-2-(((4’-Trifluoromethylbiphenyl-4-yl)methyl)amino)propanamide methane-sulfonate]
- human equivalent dose (HED) of MTD ([1]; from rat MTD): 6774.2 mg/60kg
- histopathology (kidneys, bladder, testis, epididymis and lungs) ([1]; oral 30, 50, 75 and 100 mg/kg once daily for 4 weeks): histopathological changes
- mortality ([1]; oral 50-200 mg/kg daily for 2 weeks): no deaths
- AUC(0-t) [2]: ~13000 ng·h/mL
- Vd/F ([2]; iv, 5 mg/kg): 3.714 ± 0.609 L/kg
- increase in the AUC, 30 mg/kg vs 10 mg/kg ([2]; cynomolgus monkeys): 5 fold and ~ 4.6 fold
- increase rate of Cmax vs dose ([2]; male monkeys, 10 and 30 mg/kg): slightly lower
- Tmax ([2]; male): 2 to 6 h
- AUC(0-inf) ([2]; male, po, 10 mg/kg): 43.6 µg·h/mL
- CL/F ([2]; male, po, 10 mg/kg): 3.8 mL/min/kg
- Vd/F ([2]; male, po, 10 mg/kg): 4.49 ± 0.61 L/kg
- half-life ([2]; male, po, 10 mg/kg, t1/2): 823 ± 28.8 min
- AUC(0-inf) ([2]; male, po, 30 mg/kg): 202 ± 76.8 µg·h/mL
- CL/F ([2]; male, po, 30 mg/kg): 2.58 mL/min/kg
- Vd/F ([2]; male, po, 30 mg/kg): 6.27 ± 1.67 L/kg
- half-life ([2]; male, po, 30 mg/kg, t1/2): 1020 min
- AUC(0-inf) ([2]; male, cynomolgus, po, 10 mg/kg): 43.6 µg·h/mL
- AUC(0-t) ([2]; male, cynomolgus, po, 10 mg/kg): 30600 ng·h/mL
- Tmax ([2]; male, cynomolgus, po, 10 mg/kg): 2 h
- half-life ([2]; male, cynomolgus, po, 10 mg/kg, mean half-life (t1/2)): 822 min
- half-life ([2]; male, cynomolgus, po, 10 mg/kg, t1/2): 822 min
- AUC(0-inf) ([2]; male, cynomolgus, po, 30 mg/kg): ~202 µg·h/mL
- AUC(0-t) ([2]; male, cynomolgus, po, 30 mg/kg): 80800 ng·h/mL
- Tmax ([2]; male, cynomolgus, po, 30 mg/kg): 4 to 6 h
- half-life ([2]; male, cynomolgus, po, 30 mg/kg, mean half-life (t1/2)): 1870 min
- half-life ([2]; male, cynomolgus, po, 30 mg/kg, t1/2): ~1870 min
- half-life [3]: ~2160 min
- approximate lethal dose [4]: ≥ 100 mg/kg
- mCh-positive signals (axon fibers from proliferating/proliferated cells) (rat SCI model [5]): traversed the core of the injury site
- BBB locomotor scores (rat SCI model [6]; 10, 20, and 30 mpk from subacute phase, at 10w PI): dose-dependent improvement
- average BBB score (rat SCI model [6]; SCI + KDS 2w: 10 mg/kg/day in drinking water from PI 2w (subacute)): 10.62
- recovery in BBB locomotor test and ladder rung test (rat SCI model [6]; SCI + KDS 6w: 10 mpk from chronic phase (PI 6w)): significant motor recovery
- average BBB score (rat SCI model [6]; SCI + KDS 1 d/Re: 10 mpk from acute phase (PI 1 d), recovery subgroup): 15.36
- behavioral recovery in BBB locomotor test (rat SCI model [6]; SCI+KDS1d/No: 10 mpk from acute phase, no-recovery subgroup): did not show any behavioral recovery
- pharmacologically active dose (PAD) (rat SCI model [6]; SD rats, for 8 weeks): 10 mpk
